The test system of one data set is LnCap cells. Description: cell proliferation and viability assay (trypan blue). The conditions noted are these: without / with D-β-E 0.1 uM.
The target in a further data set is NAALADase. As to conditions: read-out: Ki, inhibition of NAALADase activity; cited from earlier work.
A short description of data set [1]: median lethal dose in mice. The conditions noted are these: 20 gm Balb/C mice. Format: in vivo.
Data set [2] concerns integrin-expressing CHO K1 cells. Description: cell-mediated coagulation assay with CHO K1 cells and human plasma. Format: cell-based. As to the method: Coagulation assays were performed using an established procedure with some modifications to include a step for binding Tissue Factor constructs to cells. Platelet depleted, citrated human plasma pooled from multiple donors was used for these experiments. Cells are dislodged with trypsin free cell dissociation buffer (Gibco), and washed twice with TBS. Cells were then counted with cytometer. Only cells with viability greater than 90% were used for the assay. Varying concentrations of thrombogen were incubated with 10^5 cells in 100 ul TBS containing Ca^++ 10 mM and Mg^++ 5 mM for 15 minutes at 37° C. The assays were initiated by addition of 100 ul of pooled citrated plasma pre-warmed to 37° C. Clotting times were recorded as the interval between assay initiation and clot appearance.
Activation of the coagulation cascade was measured using a coagulation assay. Varying concentrations of Fn-TF or Tissue Factor were incubated with CHO K1 cells for 15 minutes. Coagulation assays were initiated with addition of 100 ul of pooled normal human plasma. The coagulation time was recorded as the interim between the initiation of assay and the appearance of the first fibrin strands.

The next data set concerns integrin on CHO cells. Description: binding of Fn-TF to integrin-expressing CHO K1 cells (Western blot). As to conditions: for association with CHO cells: varying concentrations, 10^5 CHO K1 cells. As to the method: The binding of the Fn-TF protein to the integrin on CHO cells was monitored through direct incubation of varying concentrations of recombinant Fn-TF with 10^5 CHO K1 cells in TBS, 10 mM CaCl2, 5 mM MgSO4. The bound and unbound proteins were separated by centrifugation, and the bound Tissue Factor immunoreactivity was detected by Western blot. The amount of Tissue Factor bound was quantified by comparing the intensity of resulting bands on the membrane to that of a standard curve of Tissue Factor protein of known concentration using a densitometer.

A further data set addresses T1, Factor VIIa (Homo sapiens, UniProt P08709).
T1 sequence (P08709 61-212 limits assumed): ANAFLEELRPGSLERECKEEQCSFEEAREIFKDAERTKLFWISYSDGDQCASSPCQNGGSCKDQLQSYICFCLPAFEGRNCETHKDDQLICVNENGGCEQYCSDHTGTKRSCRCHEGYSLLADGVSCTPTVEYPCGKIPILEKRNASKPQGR
T1 sequence (P08709 213-466 limits assumed): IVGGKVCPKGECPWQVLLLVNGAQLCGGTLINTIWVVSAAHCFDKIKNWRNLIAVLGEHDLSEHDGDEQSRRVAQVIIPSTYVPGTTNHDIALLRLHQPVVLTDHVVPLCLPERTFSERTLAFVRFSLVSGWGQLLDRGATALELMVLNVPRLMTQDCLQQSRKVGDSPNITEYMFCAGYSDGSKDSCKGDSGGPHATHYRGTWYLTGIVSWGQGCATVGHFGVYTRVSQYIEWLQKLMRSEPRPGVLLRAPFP
The data set can be described thus: amidolytic assay of Factor VIIa bound to Fn-TF or TF 1-218. It is filed as biochemical. As to conditions: Factor VIIa 5nM, chromozym t-PA. As to the method:
The catalytic activity of Factor VIIa bound to Fn-TF for a peptidyl substrate was analyzed by hydrolysis of chromozym t-Pa (Boehringer Mannheim) and compared with that of the soluble TF 1-218. Varying concentrations TF 1-218 or Fn-TF were incubated with Factor VIIa at a final concentration of 5nM in the presence of 5 mM Ca^++ at ambient temperature for 15 minutes. Chromozym t-PA was added to a concentration of 1 mM. The initial rate of hydrolysis was measured at 406 nm with a kinetic micro-titer plate reader for 1 minute.

In data set [3] the test system is Factor X. The data set can be described thus: proteolytic activity of TF construct:Factor VIIa complexes toward Factor X. It is filed as biochemical. As to conditions: soluble complexes, increasing concentration. Here is the method: The proteolytic activities of both Fn-TF:Factor VIIa and TF 1-218:Factor VIIa complexes toward Factor X were determined by a functional assay (Schullek, Ruf et al. 1994) using Spectrozyme Factor Xa to assess Factor Xa generation. Briefly, varying concentrations of Fn-TF and TF1-218 were pre-incubated with Factor VIIa (75 nM) for 5 minutes at 37° C. in the presence of 5 mM CaCl2. The reaction was initiated by addition of substrate Factor X (1.5 uM). After incubation for 10 minutes at 37° C., the reaction was terminated by adding EDTA to a concentration of 0.1M. The amount of Factor Xa generated was determined by measuring Factor Xa amidolytic activity using […] of the chromogenic substrate Spectrozyme Fxa (American Diagnostica, Greenwich, Conn.). The rate of absorbance increase at 405 nM was measured in a kinetic micro-titer plate reader.
The effect of the fused docking structure on the proteolytic activity of TF:VIIa was studied by a linked functional assay (Schullek, Ruf et al. 1994). Varying concentrations of Fn-TF or TF1-218 were allowed to bind to 10 pM Factor VIIa for 5 minutes. […] The reaction was stopped by addition of 50 mM EDTA and the amount of Factor Xa generated was determined by measuring the Factor Xa amidolytic activity in the assay mixture using spetrozyme FXa as described above.

Data set [4] relates to factor X. As to conditions: native Tissue Factor in phospholipid membrane environment; cited from earlier work.

“Also recorded” adds a separate entry of the source.

Description for LnCap cells: A cell proliferation and viability assay was employed to assess DβE inhibitor activity using trypan blue staining. LnCap cells (4×10^4 cells/well) were seeded in 96 well plates. Different concentrations of the DβE inhibitor or the Asp-Glu (D-E) substrate were added to the media as indicated. The % cell viability was determined 48 hours after treatment as the number of living cells (unstained) divided by total cells count (stain+unstained cells).
A cell proliferation and viability assay was employed to assess DβE inhibitor activity using trypan blue staining. LnCap cells (4×10^4 cells/well) were seeded in 96 well plates. Different concentrations of the DβE inhibitor or the Asp-Glu (D-E) substrate were added to the media at the concentrations indicated in FIG. 13A. The % cell viability was determined 48 hours after treatment as the number of living cells (unstained) divided by total cells count (stain+unstained cells).
The cytotoxic effect of methotrexate was assessed with and without the presence of the PSMA inhibitor (D-β-E) or PSMA substrate (D-E) using a cell proliferation and viability assay.

Turning to `CN(Cc1cnc2nc(N)nc(N)c2n1)c1ccc(C(=O)N[C@@H](CCC(=O)O)C(=O)O)cc1` [MTX, methotrexate], the “ID50/ID50* (enhancement of tumoricidal activity)” value in the data set on LnCap cells turned out to be 20.
Take `N[C@@H](Cn1oc(=O)[nH]c1=O)C(=O)O` [Quisqalic acid, quisqalic acid]: at NAALADase, the Ki was 1900 nM.
For the molecule “Fn-TF: fusion of fibronectin type III repeat domains 8-11 (SEQ ID NO:9) or domain 10 (SEQ ID NO:10) with Tissue Factor residues 3-218”, the “LD50 (median lethal dose)” value in data set [1] was “about 8 ug”. Further, the “coagulation activity compared with CHO K1 cells expressing approximately 5×10^5 native Tissue Factor molecules” value in data set [2] (75 nM Fn-TF, 10^5 CHO K1 cells) is “approximately the same level of coagulation activity”. For the same molecule, in data set [2] (approximately 100,000 Fn-TF:integrin complexes per cell, CHO K1 cells), the coagulation activity is listed as 40,000 milliunits. In data set [2] (approximately 100,000 Fn-TF:integrin complexes per cell, CHO K1 cells, human plasma), the coagulation time entry is “about 20 seconds”. Further, the “Fn-TF molecules bound per cell” value in the data set on integrin on CHO cells (75 nM Fn-TF incubated with 10^5 CHO K1 cells in 100 ul) was “approximately 5×10^5”. The “association with CHO cells” value in the data set on integrin on CHO cells was “increasing amounts of Fn-TF become associated with CHO cells”. Also, in the data set with Factor VIIa, the “cofactor enhancement of Factor VIIa amidolytic activity, compared with Tissue Factor” value is recorded as “Very little difference in amidolytic activity”. Further, the “proteolytic activity of the Factor VIIa complex toward Factor X” value with Factor X [3] is on record as “increased proteolytic activity similar to the curve obtained with TF1-218”.
On to “RGDS: RGDS (SEQ ID NO: 17) peptide that binds integrin (A RGDS peptide.) [reference compound]”, for which the “inhibition of Fn-TF coagulation activity by RGDS peptide” value in data set [2] (Fn-TF (20 nM)+RGDS (500 μM), CHO K1 cells) is listed as “fully blocked; also recorded: almost completely inhibited”.

B1: truncated Tissue Factor: recombinant Tissue Factor containing only the extracellular domain, 219 amino acids, soluble (protein, listed as Homo sapiens)
chain: SGTTNTVAAYNLTWKSTNFKTILEWEPKPVNQVYTVQISTKSGDWKSKCFYTTDTECDLTDEIVKDVKQTYLARVFSYPAGNVESTGSAGEPLYENSPEFTPYLETNLGQPTIQSFEQVGTKVNVTVEDERTLVRRNNTFLSLRDVFGKDLIYTLYYWKSSSSGKKTAKTNTNEFLIDVDKGENYCFSVQAVIPSRTVNRKSTDSPVECMGQEKGEFRE
In the case of B1, the “times less factor X-activating activity than native Tissue Factor” value in the data set on factor X [4] was “approximately 10^5”.

B2: TF1-218: soluble extracellular domain of human Tissue Factor, SEQ ID NO:4 (protein, listed as Homo sapiens)
chain: SGTTNTVAAYNLTWKSTNFKTILEWEPKPVNQVYTVQISTKSGDWKSKCFYTTDTECDLTDEIVKDVKQTYLARVFSYPAGNVESTGSAGEPLYENSPEFTPYLETNLGQPTIQSFEQVGTKVNVTVEDERTLVRRNNTFLSLRDVFGKDLIYTLYYWKSSSSGKKTAKTNTNEFLIDVDKGENYCFSVQAVIPSRTVNRKSTDSPVECMGQEKGEFR
Turning to B2, the “LD50 (median lethal dose)” value in data set [1] is on record as “greater than 500 ug”. The “association with CHO cells” value with integrin on CHO cells is “no demonstrable association”.

These data come from patent publication US7399743B2, “Targeted thrombosis” (The Scripps Research Institute, priority 2001, dated 2008).
